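How tested: cells in 96-well plates exposed to compound for 48 hours at five concentrations. The concentration for 50% growth inhibition is given as GI50. TGI is the concentration that stops growth completely.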
Legend:
Experiment in all cases: NCI anticancer screen, dose series, 48 h
ACHN renal = system: ACHN renal
COLO 205 colon = system: COLO 205 colon
MOLT-4 leukemia = system: MOLT-4 leukemia
NCI-H226 lung = system: NCI-H226 lung
NCI-H460 lung = system: NCI-H460 lung
OVCAR-3 ovarian = system: OVCAR-3 ovarian
OVCAR-5 ovarian = system: OVCAR-5 ovarian
SK-MEL-28 melanoma = system: SK-MEL-28 melanoma
SN12C renal = system: SN12C renal
TK-10 renal = system: TK-10 renal

Row | SMILES | GI50 (ACHN renal) [µM] | TGI (ACHN renal) [µM] | GI50 (COLO 205 colon) [µM] | TGI (COLO 205 colon) [µM] | GI50 (MOLT-4 leukemia) [µM] | GI50 (NCI-H226 lung) [µM] | TGI (NCI-H226 lung) [µM] | GI50 (NCI-H460 lung) [µM] | TGI (NCI-H460 lung) [µM] | GI50 (OVCAR-3 ovarian) [µM] | TGI (OVCAR-3 ovarian) [µM] | GI50 (OVCAR-5 ovarian) [µM] | TGI (OVCAR-5 ovarian) [µM] | GI50 (SK-MEL-28 melanoma) [µM] | TGI (SK-MEL-28 melanoma) [µM] | GI50 (SN12C renal) [µM] | TGI (SN12C renal) [µM] | GI50 (TK-10 renal) [µM] | TGI (TK-10 renal) [µM] | TGI (MOLT-4 leukemia) [µM]
1 | O=C1c2cc(Br)ccc2-c2c1c1ccc([N+](=O)[O-])cc1c(=O)n2CCCCl | < 0.0151 | 6.79 | 1.39 | > 100 | < 0.01 | 0.1 | 3.59 | < 0.01 | 5.4 | 1.11 | 14.5 | 2.57 | 21.8 | 1.61 | > 100 | 0.0347 | 2.2 | 13.8 | > 57.2 | –
2 | CC(=O)NC1=N/C(=C/c2cc([N+](=O)[O-])ccc2O)CN1C | – | > 100 | – | > 100 | – | – | > 100 | – | > 100 | – | > 100 | – | > 100 | – | > 100 | – | > 100 | – | > 100 | > 100
3 | CC(C)=CC(C(O)c1ccccc1)S(=O)(=O)c1nccn1C (centres undefined) | – | > 100 | – | > 100 | – | – | > 100 | – | > 100 | – | > 100 | – | > 100 | – | > 100 | – | > 100 | – | > 100 | > 100
4 | C=CCc1cc2cccc(OC)c2oc1=O | – | > 100 | – | > 100 | – | – | > 100 | – | > 100 | – | > 100 | – | > 100 | – | > 100 | – | > 100 | – | > 100 | > 100
5 | CCOC(=O)[C@@H](C)C[C@H](Cc1ccccc1)NC(=O)c1csc([C@@H](C[C@H](C(C)C)N(C)C(=O)[C@@H](NC(=O)[C@H]2C[C@H](O[Si](C)(C)C(C)(C)C)CCN2C)C(C)C)OC(C)=O)n1 | 0.427 | > 8.33 | 0.145 | 0.459 | 0.354 | 0.493 | > 4.18 | 0.188 | 1.34 | 0.192 | > 2.07 | 0.296 | > 7.43 | 0.491 | > 8.33 | 0.389 | 6.42 | 0.946 | > 8.33 | > 8.33

From PubChem BioAssay (NCI)
